Assay results from PMC6151383 (Molecules : A Journal of Synthetic Chemistry and Natural …, 2017).
Converted amounts (≈) assume the structure as drawn. Where two headings read alike, the source gives them in different places.

How the values were obtained:
Trichosporon asahii 1188 = assay: Antifungal microdilution broth MIC, T. asahii; assay type: cell-based
M. tuberculosis and NTM = assay: Antimycobacterial activity, panel; assay type: cell-based; conditions: Mycobacterium tuberculosis; range over all four mycobacterial strains and incubation times; read-out: MIC, M. tuberculosis and NTM
[1] = system: Trichophyton interdigitale 445; assay: Antifungal microdilution broth MIC, T. interdigitale; assay type: cell-based; conditions: Trichophyton interdigitale; for MIC: 445; for SI for TI: SI = IC50 (HepG2)/MIC
[2] = system: Candida albicans ATCC 44859; assay: Antifungal microdilution broth MIC, C. albicans; assay type: cell-based
[3] = system: Pseudomonas aeruginosa CCM 1961; assay: Antibacterial microdilution broth MIC, P. aeruginosa; assay type: cell-based; conditions: Pseudomonas aeruginosa, CCM1961; 48 h incubation; read-out: MIC PA 48 h
Candida krusei E28 = assay: Antifungal microdilution broth MIC, C. krusei; assay type: cell-based; conditions: Pichia kudriavzevii, E28; 48 h incubation; read-out: MIC CK 48 h
[4] = system: Mycobacterium tuberculosis 331/88 (H37Rv); assay: In vitro antimycobacterial MIC, M. tuberculosis; assay type: cell-based
M. kansasii 6509/96 = assay: In vitro antimycobacterial MIC, M. kansasii clinical isolate; assay type: cell-based; conditions: Mycobacterium kansasii
[5] = system: Staphylococcus epidermidis H 6966/08; assay: Antibacterial microdilution broth MIC, S. epidermidis; assay type: cell-based; conditions: Staphylococcus epidermidis
[6] = system: Aspergillus fumigatus 231; assay: Antifungal microdilution broth MIC, A. fumigatus; assay type: cell-based; conditions: Aspergillus fumigatus, 231; 48 h incubation; read-out: MIC AF 48 h
[7] = system: Enterococcus faecalis J 14365/08; assay: Antibacterial microdilution broth MIC, E. faecalis; assay type: cell-based; conditions: Enterococcus faecalis, J14365/08; 48 h incubation; read-out: MIC EF 48 h
Candida glabrata 20/I = assay: Antifungal microdilution broth MIC, C. glabrata; assay type: cell-based; conditions: Nakaseomyces glabratus
[8] = system: Lichtheimia corymbifera 272; assay: Antifungal microdilution broth MIC, L. corymbifera; assay type: cell-based; conditions: Lichtheimia corymbifera, 272; 48 h incubation; read-out: MIC LC 48 h
[9] = system: Mycobacterium avium 330/88; assay: In vitro antimycobacterial MIC, M. avium; assay type: cell-based
[10] = system: Mycobacterium kansasii 235/80; assay: In vitro antimycobacterial MIC, M. kansasii 235/80; assay type: cell-based
[11] = system: Klebsiella pneumoniae D 11750/08
[12] = system: Staphylococcus aureus CCM 4516/08; assay: Antibacterial microdilution broth MIC, S. aureus; assay type: cell-based; conditions: Staphylococcus aureus
[13] = system: Escherichia coli CCM 4517; assay: Antibacterial microdilution broth MIC, E. coli; assay type: cell-based; conditions: Escherichia coli, CCM4517; 48 h incubation; read-out: MIC EC 48 h
Candida tropicalis 156 = assay: Antifungal microdilution broth MIC, C. tropicalis; assay type: cell-based
[14] = system: ESBL-positive Klebsiella pneumoniae J 14368/08
Candida sp. = assay: Selectivity index for Candida sp. (IC50 HepG2/MIC); assay type: cell-based; conditions: all Candida species
[15] = Trichosporon asahii, 1188, 48 h incubation, read-out: MIC TA 48 h
[16] = 72 h incubation, read-out: MIC TI 72 h
[17] = 120 h incubation, read-out: MIC TI 120 h
[18] = ATCC44859, 48 h incubation, read-out: MIC CA 48 h
[19] = 336 h, 14 d incubation, read-out: MIC Mtb. 331/88 14 d
[20] = 504 h, 21 d incubation, read-out: MIC Mtb. 331/88 21 d
[21] = 6509/96, 168 h, 7 d incubation, read-out: MIC M. kansasii 6509/96 7 d
[22] = 6509/96, 336 h, 14 d incubation, read-out: MIC M. kansasii 6509/96 14 d
[23] = 6509/96, 504 h, 21 d incubation, read-out: MIC M. kansasii 6509/96 21 d
[24] = H6966/08, 48 h incubation, read-out: MIC SE 48 h
[25] = 48 h incubation, read-out: MIC CG 48 h
[26] = 330/88, 336 h, 14 d incubation, read-out: MIC M. avium 330/88 14 d
[27] = 330/88, 504 h, 21 d incubation, read-out: MIC M. avium 330/88 21 d
[28] = 235/80, 168 h, 7 d incubation, read-out: MIC M. kansasii 235/80 7 d
[29] = 235/80, 336 h, 14 d incubation, read-out: MIC M. kansasii 235/80 14 d
[30] = 235/80, 504 h, 21 d incubation, read-out: MIC M. kansasii 235/80 21 d
[31] = Candida tropicalis, 156, 48 h incubation, read-out: MIC CT 48 h
[32] = CCM4516, 48 h incubation, read-out: MIC SA 48 h

SMILES	MIC [1, 16] [µM]	MIC [1, 17] [µM]	MIC [3] [µM]	MIC (Candida krusei E28) [µM]	MIC [4, 19] [µM]	MIC [4, 20] [µM]	MIC (M. kansasii 6509/96; [21]) [µM]	MIC (M. kansasii 6509/96; [22]) [µM]	MIC (M. kansasii 6509/96; [23]) [µM]	MIC [7] [µM]	MIC [9, 26] [µM]	MIC [9, 27] [µM]	MIC [10, 28] [µM]	MIC [10, 29] [µM]	MIC [10, 30] [µM]	MIC KP 24 h [11] [µM]	MIC KP 48 h [11] [µM]	MIC [13] [µM]	MIC KP-E 24 h [14] [µM]	MIC KP-E 48 h [14] [µM]	further results
O=[N+]([O-])c1ccc(C=Nc2ccc(S(=O)(=O)Nc3ncccn3)cc2)o1 [Compound 2q, 4-{[(5-Nitrofuran-2-yl)methylene]amino}-N-(pyrimidin-2-yl)benzenesulfonamide]	250 (≈ 93.3 µg/mL)	250 (≈ 93.3 µg/mL)	250 (≈ 93.3 µg/mL)	250 (≈ 93.3 µg/mL)	125 (≈ 46.7 µg/mL)	125 (≈ 46.7 µg/mL)	62.5 (≈ 23.3 µg/mL)	62.5 (≈ 23.3 µg/mL)	125 (≈ 46.7 µg/mL)	> 500	500 (≈ 187 µg/mL)	500 (≈ 187 µg/mL)	125 (≈ 46.7 µg/mL)	250 (≈ 93.3 µg/mL)	250 (≈ 93.3 µg/mL)	500 (≈ 187 µg/mL)	500 (≈ 187 µg/mL)	> 500	500 (≈ 187 µg/mL)	500 (≈ 187 µg/mL)	MIC (Trichosporon asahii 1188; [15]): 500 µM (≈ 187 µg/mL); MIC (M. tuberculosis and NTM): ≥ 62.5 µM; MIC [2, 18]: 250 µM (≈ 93.3 µg/mL); MIC [5, 24]: 31.2 µM (≈ 11.7 µg/mL); MIC ([5]; H6966/08, incubation time not given, read-out: MIC for S. epidermidis): 31.2 µM (≈ 11.7 µg/mL); MIC [6]: 500 µM (≈ 187 µg/mL); MIC (Candida glabrata 20/I; [25]): 250 µM (≈ 93.3 µg/mL); MIC [8]: > 500 µM; MIC ([12]; CCM4516, 24 h, read-out: MIC SA 24 h): 125 µM (≈ 46.7 µg/mL); MIC ([12]; CCM4516, 48 h, read-out: MIC SA 48 h): 125 µM (≈ 46.7 µg/mL); MIC (Candida tropicalis 156; [31]): 250 µM (≈ 93.3 µg/mL)
O=S(=O)(Nc1ncccn1)c1ccc(N=Cc2c(O)cccc2Cl)cc1 [Compound 2k, 4-[(2-Chloro-6-hydroxybenzylidene)amino]-N-(pyrimidin-2-yl)benzenesulfonamide]	> 250	> 250	> 250	> 250	125 (≈ 48.6 µg/mL)	125 (≈ 48.6 µg/mL)	62.5 (≈ 24.3 µg/mL)	125 (≈ 48.6 µg/mL)	125 (≈ 48.6 µg/mL)	> 250	250 (≈ 97.2 µg/mL)	250 (≈ 97.2 µg/mL)	62.5 (≈ 24.3 µg/mL)	125 (≈ 48.6 µg/mL)	250 (≈ 97.2 µg/mL)	>250	>250	> 250	>250	>250	MIC (Trichosporon asahii 1188; [15]): > 250 µM; SI for TI [1]: inactive; MIC [2, 18]: > 250 µM; MIC [5, 24]: > 250 µM; MIC [6]: > 250 µM; MIC (Candida glabrata 20/I; [25]): > 250 µM; MIC [8]: > 250 µM; MIC [12, 32]: > 250 µM; SI for Candida sp. (Candida sp.): inactive; MIC (Candida tropicalis 156; [31]): > 250 µM
Nc1ccc(S(=O)(=O)Nc2ncccn2)cc1 [SDZ 1, sulfadiazine, reference compound]	–	–	> 500	–	32 (≈ 8.01 µg/mL)	62.5 (≈ 15.6 µg/mL)	8 (≈ 2 µg/mL)	8 (≈ 2 µg/mL)	8 (≈ 2 µg/mL)	> 500	62.5 (≈ 15.6 µg/mL)	62.5 (≈ 15.6 µg/mL)	16 (≈ 4 µg/mL)	16 (≈ 4 µg/mL)	32 (≈ 8.01 µg/mL)	>500	>500	> 500	>500	>500	SI for TI [1]: inactive; MIC [5, 24]: > 500 µM; MIC [12, 32]: > 500 µM; SI for Candida sp. (Candida sp.): inactive
Cc1ccc(O)c(C=Nc2ccc(S(=O)(=O)Nc3ncccn3)cc2)c1 [Compound 2g, 4-[(2-Hydroxy-5-methylbenzylidene)amino]-N-(pyrimidin-2-yl)benzenesulfonamide]	> 500	> 500	> 250	> 500	125 (≈ 46.1 µg/mL)	125 (≈ 46.1 µg/mL)	62.5 (≈ 23 µg/mL)	62.5 (≈ 23 µg/mL)	125 (≈ 46.1 µg/mL)	> 250	500 (≈ 184 µg/mL)	1000 (≈ 368 µg/mL)	125 (≈ 46.1 µg/mL)	125 (≈ 46.1 µg/mL)	250 (≈ 92.1 µg/mL)	>250	>250	> 250	>250	>250	MIC (Trichosporon asahii 1188; [15]): > 500 µM; SI for TI [1]: inactive; MIC [2, 18]: > 500 µM; MIC ([5]; H6966/08, 24 h, read-out: MIC SE 24 h): 125 µM (≈ 46.1 µg/mL); MIC ([5]; H6966/08, 48 h, read-out: MIC SE 48 h): 125 µM (≈ 46.1 µg/mL); MIC [6]: > 500 µM; MIC (Candida glabrata 20/I; [25]): > 500 µM; MIC [8]: > 500 µM; MIC [12, 32]: > 250 µM; SI for Candida sp. (Candida sp.): inactive; MIC (Candida tropicalis 156; [31]): > 500 µM
O=S(=O)(Nc1ncccn1)c1ccc(N=Cc2cc(F)ccc2O)cc1 [Compound 2b, 4-[(5-Fluoro-2-hydroxybenzylidene)amino]-N-(pyrimidin-2-yl)benzenesulfonamide]	> 250	> 250	> 250	> 250	125 (≈ 46.5 µg/mL)	125 (≈ 46.5 µg/mL)	125 (≈ 46.5 µg/mL)	250 (≈ 93.1 µg/mL)	250 (≈ 93.1 µg/mL)	> 250	500 (≈ 186 µg/mL)	1000 (≈ 372 µg/mL)	62.5 (≈ 23.3 µg/mL)	125 (≈ 46.5 µg/mL)	250 (≈ 93.1 µg/mL)	>250	>250	> 250	>250	>250	MIC (Trichosporon asahii 1188; [15]): > 250 µM; SI for TI [1]: inactive; MIC [2, 18]: > 250 µM; MIC [5, 24]: > 250 µM; MIC [6]: > 250 µM; MIC (Candida glabrata 20/I; [25]): > 250 µM; MIC [8]: > 250 µM; MIC [12, 32]: > 250 µM; SI for Candida sp. (Candida sp.): inactive; MIC (Candida tropicalis 156; [31]): > 250 µM
O=S(=O)(Nc1ncccn1)c1ccc(N=Cc2cccc(Cl)c2O)cc1 [Compound 2l, 4-[(3-Chloro-2-hydroxybenzylidene)amino]-N-(pyrimidin-2-yl)benzenesulfonamide]	31.2 (≈ 12.2 µg/mL)	31.2 (≈ 12.2 µg/mL)	> 500	250 (≈ 97.2 µg/mL)	32 (≈ 12.4 µg/mL)	62.5 (≈ 24.3 µg/mL)	16 (≈ 6.22 µg/mL)	16 (≈ 6.22 µg/mL)	32 (≈ 12.4 µg/mL)	> 500	125 (≈ 48.6 µg/mL)	250 (≈ 97.2 µg/mL)	16 (≈ 6.22 µg/mL)	32 (≈ 12.4 µg/mL)	62.5 (≈ 24.3 µg/mL)	>500	>500	> 500	>500	>500	MIC (Trichosporon asahii 1188; Trichosporon asahii, 1188, 24 h, read-out: MIC TA 24 h): 125 µM (≈ 48.6 µg/mL); MIC (Trichosporon asahii 1188; Trichosporon asahii, 1188, 48 h, read-out: MIC TA 48 h): 125 µM (≈ 48.6 µg/mL); MIC ([2]; ATCC44859, 24 h, read-out: MIC CA 24 h): 62.5 µM (≈ 24.3 µg/mL); MIC ([2]; ATCC44859, 48 h, read-out: MIC CA 48 h): 62.5 µM (≈ 24.3 µg/mL); MIC [5, 24]: > 500 µM; MIC [6]: 250 µM (≈ 97.2 µg/mL); MIC (Candida glabrata 20/I; 24 h, read-out: MIC CG 24 h): 125 µM (≈ 48.6 µg/mL); MIC (Candida glabrata 20/I; 48 h, read-out: MIC CG 48 h): 125 µM (≈ 48.6 µg/mL); MIC [8]: > 500 µM; MIC [12, 32]: > 500 µM; MIC (Candida tropicalis 156; Candida tropicalis, 156, 24 h, read-out: MIC CT 24 h): 125 µM (≈ 48.6 µg/mL); MIC (Candida tropicalis 156; Candida tropicalis, 156, 48 h, read-out: MIC CT 48 h): 125 µM (≈ 48.6 µg/mL)
